Data reported in patent US7816347B2, “Pharmaceutical compositions comprising NEP-inhibitors, inhibitors of the endogenous endothelin producing system and HMG CoA reductase inhibitors” (Solvay Pharmaceuticals GmbH, priority 2004, dated 2010).
Where two headings read alike, the source gives them in different places. Marks after values point to notes of the source that are not given here.

Legend:
[1] = system: spontaneously hypertensive rat; conditions: in food
Description: Male spontaneously hypertensive rats (=SHR; insulin resistant strain from Charles River; aged 6 months) were equipped with telemetry transmitters for continuous monitoring of blood pressure and heart rate (TA11PA-C40, DSI, USA). Telemetry transmitters for continuous monitoring of blood pressure, heart rate and locomotor activity (TA11PA-C40, Data Sciences, USA) were implanted intraabdominally under inhalative halothane anesthesia. A midline abdominal incision was made, and the abdominal aorta was visualized by removal of retroperitoneal fat and connective tissue. A ligature was placed caudal of the renal arteries, the aorta was punctured with a 22G needle, and the catheter was advanced into the aorta. The entry point was sealed with tissue adhesive (Vetbond™, 3M, USA), the ligature was removed, and the abdominal incision was closed. Measurements of aortic pressure were taken every 5 minutes (=min) for 4 seconds (=s) each at a sampling rate of 500 Hz, and were corrected for the corresponding ambient pressure (ambient pressure monitor, C11PR, Data Sciences, USA).
In a further study performed with a new batch of SHR equipped with telemetry-transmitters as described above, the animals were divided into two groups receiving the HMG CoA reductase inhibitor atorvastatin or a combination of atorvastatin+daglutril. Compounds were mixed into the food, and the daily drug intake was measured by weighing the unconsumed food four times weekly. Intended daily doses were 40 mg/kg/day of atorvastatin and in addition, in the combination group, 100 mg/kg/day of daglutril.
Concentrations of atorvastatin and daglutril in the food were adjusted once per week.
For the statistical analysis, the effects of atorvastatin and atorvastatin+daglutril were calculated by subtracting the baseline value (pre) measured on the last day prior to the start of treatment (day 3) from that measured on day 25 (i.e. on the penultimate day of the treatment period) for each animal. The statistical comparison was done by using a two-sided unpaired Student's t-test.

[2] = system: spontaneously hypertensive rat; assay: Telemetric blood pressure and heart rate in SHR; daglutril, simvastatin or simvastatin+daglutril via drinking water; type: in vivo; conditions: for DBP, change from baseline / HR, change from baseline / SBP, change from baseline: 24 h mean, day 23 minus baseline (day 3), intended 40 mg/kg/day simvastatin, 100 mg/kg/day daglutril, n = 4-5
Description: In a first experiment, after 3 days of monitoring under baseline (untreated) conditions, animals received daglutril via the drinking water. The intended daily dose was 100 mg/kg/day of daglutril. The concentration in drinking water was adjusted once per week, resulting in an average drug intake of 98 mg/kg/day.
Concentrations of simvastatin and daglutril in the drinking water were adjusted once per week, in order to ensure the intended daily intake of 40 and 100 mg/kg, respectively. The average daily water intake amounted to 33 and 36 ml/kg in the simvastatin and simvastatin+daglutril group, respectively, resulting in the uptake of 36 mg/kg/day of simvastatin in the simvastatin group, and 37 mg/kg/day of simvastatin and 93 mg/kg/day of daglutril in the combination group.
These 24 h means were exported to Excel®, and group mean values of systolic (SBP), diastolic blood pressure (DBP), heart rate (HR), and locomotor activity (ACT) were calculated daily. For the statistical analysis, the effects of simvastatin and simvastatin+daglutril were calculated by subtracting the baseline value (pre) measured on the last day prior to compound application (day 3) from that value measured on day 23 (i.e. on the penultimate day of the treatment period) for each animal. The statistical comparison was done by using univariate ANOVA at an error level of P<0.05.

[3] = system: human subjects with congestive heart failure; assay: Single dose study of oral daglutril during 12-hour right heart catheterization; subgroup analysis by concomitant HMG CoA reductase inhibitor; type: in vivo; conditions: CHF patients, single oral dose of daglutril (200, 400 or 800 mg groups), with or without concomitant HMG CoA reductase inhibitor; value (SE)
Description: A randomized, placebo-controlled, parallel group, multi-center, single dose study of oral daglutril (vide supra) during 12-hour right heart catheterization in human subjects with congestive heart failure (=CHF) was performed. Each subject received one dose of daglutril or placebo. The study consisted of three visits (or study days when in-subjects were included). Ambulatory subjects were in hospital for two nights and one day. […]
The primary efficacy parameter was the maximum decrease from baseline over 6 hours for SVR and was compared between treatment groups using analysis of covariance, with the baseline value as covariate and center and NYHA classification as factors. […] In addition, the existence of a dose-response relationship for daglutril was evaluated by investigating linear, quadratic and cubic contrasts. The secondary efficacy parameter was the maximum change from baseline over 6 hours for PCWP and was analyzed in the same way as the primary variable. The maximum decrease from baseline over 12 hours, the change from for each individual time point and the adjusted area under the curve (=AUC) over 6 and 12 hours were analyzed for SVR and PCWP, using similar statistical methodology as for the main parameter of interest. […]

[4] = 24 h mean, day 25 minus baseline (day 3), intended 40 mg/kg/day atorvastatin, 100 mg/kg/day daglutril, n = 6

| SMILES | DBP, change from baseline [1, 4] [mmHg] | HR, change from baseline [1, 4] [min⁻¹] | SBP, change from baseline [1, 4] [mmHg] | Effect on blood pressure (both SBP and DBP) (in words) ([1]; SHR) | DBP, change from baseline [2] | HR, change from baseline [2] [min⁻¹] | SBP, change from baseline [2] | Placebo corrected mean change of MPAP (average 0.5-6 hrs) [3] | Effect on blood pressure (in words) ([2]; SHR) |
| --- | --- | --- | --- | --- | --- | --- | --- | --- | --- |
| CC(C)c1c(C(=O)Nc2ccccc2)c(-c2ccccc2)c(-c2ccc(F)cc2)n1CC[C@@H](O)C[C@@H](O)CC(=O)O [Atorvastatin, atorvastatin] | 3.2 | -25.3 | 3.5 | increase in blood pressure | – | – | – | – | – |
| CCC(C)(C)C(=O)O[C@H]1C[C@@H](C)C=C2C=C[C@H](C)[C@H](CC[C@@H]3C[C@@H](O)CC(=O)O3)[C@H]21 [Simvastatin, simvastatin] | – | – | – | – | 4.7 mmHg | -4.2 | 4.2 mmHg | – | – |
| CCOC(=O)C(CCc1ccccc1)CC1(C(=O)NC2CCc3ccccc3N(CC(=O)O)C2=O)CCCC1 (stereo not drawn) [daglutril, 2-[1-(1-carboxymethyl-2-oxo-2,3,4,5-tetrahydro-1H-benzo[b]azepin-3-ylcarbamoyl)-cyclopentylmethyl]-4-phenyl-butyric acid ethyl ester] | – | – | – | – | 2.0* mmHg | -6.0 | −0.3* mmHg | −2.26 (1.05) mm Hg | no effect on blood pressure |
